Data on one compound can be found in US12661365B2, “Use of cannabidiol in the treatment of epilepsy” (priority 2020, dated 2026).

Molecules are shown by their SMILES.

Data set [1] is described as follows: Phase 1 open-label drug-drug interaction trial: effect of repeated-dose CBD on the pharmacokinetics of a single dose of caffeine (plasma caffeine and paraxanthine, LC-MS/MS). Type of data set: in vivo, human. The conditions noted are these: trough samples Days 23, 25 and 26, 750 mg CBD b.i.d., before coadministration on Day 26. An excerpt: The duration of the trial was approximately 10 weeks, which includes a screening period (up to 4 weeks), a treatment period (4 weeks) and a safety follow-up period (2 weeks). After signing the informed consent form (ICF), participants entered the screening period (Day −28 to −1). […] The subjects were resident in the CRU for 2 periods. […] They were discharged on Day 3 after completion of the assessments. On Day 3, the first dose of CBD was taken in the morning in the CRU, and on this day, the escalating doses of CBD were dispensed to subjects to be taken at home from Day 4 to Day 12. After discharge on Day 3, the subjects returned to the CRU for ambulatory visits on Days 12, 18, and 23. At these ambulatory visits, the maintenance doses of CBD were dispensed to subjects to be taken at home from Day 13 to Day 25 (the evening dose of Day 25 was taken in the CRU). The subjects were admitted again to the CRU in the afternoon of Day 25. […] The subjects were discharged on Day 28 after completion of the assessments. […]
Plasma concentration of CBD determined on the following days: 23, 25, and 26. These were determined using liquid chromatography and tandem mass spectrometry. […]

Another data set deals with serum ALT. In words: Liver safety in the Phase 1 trial: serum liver chemistries (peak ALT versus ULN). Type of data set: in vivo, human. The source says: Clinical laboratory measurements of liver injury and function, the Upper Limit of Normal (ULN) values used are: 68 international units [IU]/L for ALT, 45 IU/L for aspartate aminotransferase (AST), 129 IU/L for alkaline phosphatase (ALP), 29 μmol/L for total bilirubin (TBL), and 59 IU/L for gamma-glutamyl transferase (GGT).
Drug induced liver injury (DILI) is when serum ALT exceeds 5×ULN.
In the above-outlined Phase 1 trial, abnormal liver chemistries were found for the subjects. This was unexpected as subjects were healthy adults receiving therapeutic equivalent doses of CBD used to treat Dravet Syndrome and Lennox-Gastaut Syndrome (1500 mg/day).
Measurements were performed at screening, on trial Days −1, 12, 18, 23, 27, and at follow-up.

The mark [2] stands for this setting: healthy adults, CBD 1500 mg/day.
The mark [3] stands for this setting: healthy adults, CBD 1500 mg/day, 16 participants, ALT ULN 68 IU/L.

`C=C(C)[C@@H]1CCC(C)=C[C@H]1c1c(O)cc(CCCCC)cc1O` [CBD, Cannabidiol]: the “trough plasma levels of CBD” value in data set [1] was “reached steady state”. Besides, the “rate of abnormal liver chemistries in healthy volunteers” value with serum ALT (CBD at the doses used in this study) is 44%. In addition, in the data set on serum ALT (exposure to cannabidiol), the “exposure time at which all ALT elevations occurred” value is 2-4 weeks. Moreover, in the data set on serum ALT (setting [2]), the “participants with peak ALT >5×ULN (international consensus criteria for DILI)” value is 5 (31%) participants and the “participants with peak serum ALT >2×ULN” value is recorded as 6 (38%) participants. Moreover, in the data set with serum ALT (setting [3]), the “participants with peak serum ALT ≥2 × ULN” value is 6 (38%), the “participants with peak serum ALT ≥3 × ULN” value is 5 (31%), the “participants with peak serum ALT ≥5 × ULN” value is 5 (31%) and the “participants with peak serum ALT ≥10 × ULN” value is reported as 0 (0). In the data set on serum ALT (setting [3]), the “participants with peak serum ALT ≥20 × ULN” value is 0 (0). For the same compound, the “participants with peak serum ALT >ULN” value with serum ALT (healthy adults, CBD up to 750 mg b.i.d. (1500 mg/day), 16 participants, ALT ULN 68 IU/L) is listed as 7 (44%). For the same compound, the “trial days between which all ALT elevations occurred” value in the data set on serum ALT (trial day) lay in the range of 18 to 27 days.
